Measurements published in paper PMC10548524, “Evolutionary adaptation from hydrolytic to oxygenolytic catalysis at the α/β-hydrolase fold” (Chemical Science, 2023).

Assays:
[1] = biological target: T1, HOD (1-H-3-hydroxy-4-oxoquinaldine 2,4-dioxygenase) (Paenarthrobacter nitroguajacolicus, UniProt O31266, H251A); experiment: X-ray crystallography, normoxic and O2-pressurised (soak-and-freeze); format: binding; details: 2.0 Å (normoxic) and 2.1 Å (hyperoxic, 40 bar O2, 2 min); active site, non-reactive substrate analogue
T1 construct: crystallised protein; construct, tags and host only in supplement

[2] = biological target: T2, HOD (1-H-3-hydroxy-4-oxoquinaldine 2,4-dioxygenase) (Paenarthrobacter nitroguajacolicus, UniProt O31266, S101A); experiment: as above; format: binding; details: 2.0 Å; with water (normoxic) or O2 (40 bar, 2 min) at the R-site; active site
T2 construct: crystallised protein; construct, tags and host only in supplement

Question: How did the “X-ray crystallography, normoxic and O2-pressurised (soak-and-freeze)” value [1] turn out when `Cc1cc(=O)c2ccccc2[nH]1` [MQO, 2-methyl-quinolin-4(1H)-one] was run?
Answer: MQO binds in the active site similarly to QND

Question: And the “X-ray crystallography, normoxic and O2-pressurised (soak-and-freeze)” value [2]?
Answer: we then solved the structure of HOD^S101A in a complex with MQO
